Reference: PubChem BioAssay (NCI)
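Dose response: 5 concentrations. Exposure: 48 h. Format: 96-well plates. Endpoint: linear interpolation; highest concentration if not reached. TGI is the concentration that stops growth completely.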

Experiments:
Experiment in all cases: growth of human tumour cells (NCI), 48 h
[1] = system: 786-0 renal
[2] = system: A498 renal
[3] = system: A549 NSCLC
[4] = system: ACHN renal
[5] = system: CAKI-1 renal
[6] = system: CCRF-CEM leukemia
[7] = system: COLO 205 colon
[8] = system: DLD-1 colon
[9] = system: DMS 114 small cell lung
[10] = system: DMS 273 small cell lung
[11] = system: HCC-2998 colon
[12] = system: HCT-116 colon
[13] = system: HCT-15 colon
[14] = system: HL-60(TB) leukemia
[15] = system: HOP-18 NSCLC
[16] = system: HOP-62 NSCLC
[17] = system: HOP-92 NSCLC
[18] = system: HT29 colon
[19] = system: IGROV1 ovarian
[20] = system: K-562 leukemia
[21] = system: KM12 colon
[22] = system: KM20L2 colon
[23] = system: LOX IMVI melanoma
[24] = system: LXFL 529 NSCLC
[25] = system: M14 melanoma
[26] = system: M19-MEL melanoma
[27] = system: MALME-3M melanoma
[28] = system: MOLT-4 leukemia
[29] = system: NCI-H226 lung
[30] = system: NCI-H23 lung
[31] = system: NCI-H460 lung
[32] = system: NCI-H522 lung
[33] = system: OVCAR-3 ovarian
[34] = system: OVCAR-4 ovarian
[35] = system: OVCAR-5 ovarian
[36] = system: OVCAR-8 ovarian
[37] = system: RPMI-8226 leukemia
[38] = system: RXF 393 renal
[39] = system: SF-268 CNS
[40] = system: SF-295 CNS
[41] = system: SF-539 CNS
[42] = system: SK-MEL-2 melanoma
[43] = system: SK-MEL-28 melanoma
[44] = system: SK-MEL-5 melanoma
[45] = system: SN12C renal
[46] = system: SNB-19 CNS
[47] = system: SNB-75 CNS
[48] = system: SNB-78 CNS
[49] = system: SW-620 colon
[50] = system: TK-10 renal
[51] = system: U251 CNS
[52] = system: UACC-257 melanoma
[53] = system: UACC-62 melanoma
[54] = system: UO-31 renal
[55] = system: XF 498 CNS
[56] = system: EKVX NSCLC
[57] = system: RXF-631 renal
[58] = system: SK-OV-3 ovarian
[59] = system: SR leukemia

Measured: TGI

CN(C)CC1(C)CC/C(=C\c2ccc(Cl)cc2)C1=O (stereo not drawn)
43.4 µM: [37]
> 100 µM: [1] | [2] | [3] | [4] | [5] | [11] | [12] | [13] | [14] | [15] | [16] | [17] | [18] | [19] | [20] | [25] | [26] | [27] | [29] | [30] | [33] | [34] | [35] | [36] | [39] | [40] | [41] | [42] | [43] | [44] | [45] | [47] | [48] | [50] | [51] | [52] | [54] | [55]
82.1 µM: [23] | [38]
64.9 µM: [53]
35.7 µM: [22]
31.7 µM: [7]
33.1 µM: [32]
54.6 µM: [31]
40.8 µM: [24]
80.3 µM: [21]
35.5 µM: [49]
56.2 µM: [9]
85.7 µM: [8]
65.2 µM: [46]
50.7 µM: [10]
68.4 µM: [6]
55.8 µM: [28]

COc1ccc(OC2(c3cc(OC)ccc3OC)OC(=O)c3ccccc32)cc1 (stereo not drawn)
> 100 µM: [1] | [2] | [3] | [4] | [5] | [6] | [7] | [8] | [9] | [10] | [56] | [11] | [12] | [13] | [14] | [15] | [16] | [17] | [18] | [19] | [20] | [21] | [22] | [23] | [24] | [25] | [26] | [27] | [28] | [29] | [30] | [31] | [32] | [33] | [34] | [35] | [36] | [37] | [38] | [57] | [39] | [40] | [41] | [42] | [43] | [44] | [58] | [45] | [46] | [47] | [48] | [59] | [49] | [50] | [51] | [52] | [53] | [54]
